Consider 20 compounds from patent US20240018120A1, “MAGL INHIBITORS” (H. LUNDBECK A/S, priority 2020, published 2024).

What is called IC50 is the point on the concentration scale where inhibition reaches its midpoint. A higher IC50 goes with weaker potency in that assay.

Molecules are shown by their SMILES.

Series [1] deals with T1, MAGL (Homo sapiens, UniProt Q99685).
T1 sequence (Q99685 1-303): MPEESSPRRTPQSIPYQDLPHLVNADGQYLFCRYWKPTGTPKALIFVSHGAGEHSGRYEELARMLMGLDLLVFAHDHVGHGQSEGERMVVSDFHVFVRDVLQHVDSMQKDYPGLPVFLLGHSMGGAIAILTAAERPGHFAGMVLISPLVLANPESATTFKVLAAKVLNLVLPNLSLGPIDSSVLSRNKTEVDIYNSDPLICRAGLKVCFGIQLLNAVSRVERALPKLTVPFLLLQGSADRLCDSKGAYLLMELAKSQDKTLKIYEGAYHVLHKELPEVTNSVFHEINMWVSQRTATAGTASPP
As to the kind of experiment: In vitro competitive activity-based protein profiling, PC3 human cell membrane proteomes. The class given is biochemical. On the set-up: endogenous in cells; host or cells: PC3 human cells (membrane proteome). The note with it: human PC3 membrane proteome; for inhibition at 1 µM: read-out: MAGL % inh. 1 μM (human PC3). The method in brief:
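Competitive ABPP in PC3 membrane proteome (2.0 mg/mL protein): inhibitors preincubated 30 min at 37° C, then JW912-Bodipy probe added for 30 min at room temperature. MAGL band fluorescence after SDS-PAGE normalised to DMSO; IC50 from 4-parameter sigmoidal fit.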

Series [2] deals with cryopreserved human hepatocytes. In words: In vitro human hepatocyte stability. The class given is in vitro ADME. Conditions: human hepatocytes 0.5×10^6 cells/mL, 1 μM. The protocol:
The metabolic stability of test articles (1 μM) in commercially sourced, pooled donor, cryopreserved human hepatocytes (0.5×10^6 cells/mL) was determined in duplicate. The CLint reactions (250 μL) were initiated by addition of test compound. Aliquots (25 μL) were taken at 0, 15, 30, 45, 60, 90, 120 and 240 minutes and then protein crashed with ice-cold acetonitrile containing internal standard then centrifuged (3220 g for 25 minutes). Supernatant was used for LC-MS/MS analysis. The in vitro half-life (in vitro t½) was determined from the slope value: in vitro t1/2=−0.693/k. Conversion of the in vitro t1/2 (in min) into the scale-up unbound intrinsic clearance (Scaled-up unbound CLint, in mL/min/kg) was done using the following equation (mean of duplicate determinations), with data shown in Table 5: Scaled-up unbound CLint=kV/N×scaling factor. V=incubation volume (0.25 mL); N=number of hepatocytes per well ([…]). Scaling factors for in vivo intrinsic clearance prediction are listed below: […]

Series [3] has as its target T1, MAGL. In words: In vitro competitive substrate hydrolysis enzyme activity assay (pNPA), HEK293 cell lysates. The class given is biochemical. On the set-up: expressed in transfected cells; host or cells: HEK293. The note with it: HEK293 lysate. The protocol:
HEK293 cell lysates expressing recombinant human MAGL enzyme and 4-nitrophenyl acetate (pNPA) substrate were diluted separately in 50 mM HEPES (pH 7.0) containing 200 mM KCl and 1 mM EDTA. Lysates (50 μL, ˜1.2 μg total protein) were preincubated with varying concentrations of inhibitors at 25° C. After 30 min, 2×pNPA substrate (50 μL, 2.5 mM) was added and the rate of substrate turnover was monitored by measuring the increase in absorbance at wavelength 405 nm for 20 minutes at 25° C. using a Biotek Neo2 plate reader. The mean velocity was converted to percent enzyme activity following background subtraction and normalization to DMSO controls. IC50 values were determined by fitting percent enzyme activities to a non-linear regression, 4-parameter, sigmoidal dose response function in Prism GraphPad.

`Cn1ccc(NC(=O)C2CC23CCN(C(=O)OC(C(F)(F)F)C(F)(F)F)CC3)n1` (single isomer, unassigned) [Example 127, 1,1,1,3,3,3-hexafluoropropan-2-yl (R or S)-1-((1-methyl-1H-pyrazol-3-yl)carbamoyl)-6-azaspiro[2.5]octane-6-carboxylate] registered an IC50 on MAGL [1] of 0.019 µM. Also, in series [2], the “Scaled-up unbound CLint” value stood at 9.51 mL/min/kg.
The matching figures for `Cc1cnc(NC(=O)C2CC23CCN(C(=O)OC(C(F)(F)F)C(F)(F)F)CC3)cn1` (single isomer, unassigned) [Example 112, 1,1,1,3,3,3-hexafluoropropan-2-yl (R or S)-1-((5-methylpyrazin-2-yl)carbamoyl)-6-azaspiro[2.5]octane-6-carboxylate]: 0.0042 µM and 9.59 mL/min/kg.
The matching figures for `O=C(Nc1ccc(-n2cccn2)nc1)C1CC12CCN(C(=O)OC(C(F)(F)F)C(F)(F)F)CC2` (single isomer, unassigned) [Example 29, 1,1,1,3,3,3-Hexafluoropropan-2-yl (R or S)-1-((6-(1H-pyrazol-1-yl)pyridin-3-yl)carbamoyl)-6-azaspiro[2.5]octane-6-carboxylate]: 0.003 µM and 32.74 mL/min/kg.
The matching figures for `Cn1nccc1NC(=O)C1CC12CCN(C(=O)OC(C(F)(F)F)C(F)(F)F)CC2` (single isomer, unassigned) [Example 135, 1,1,1,3,3,3-hexafluoropropan-2-yl (R or S)-1-((1-methyl-1H-pyrazol-5-yl)carbamoyl)-6-azaspiro[2.5]octane-6-carboxylate]: 0.015 µM and 16.79 mL/min/kg.
As for `CP(C)(=O)c1ccc(NC(=O)C2CC23CCN(C(=O)OC(C(F)(F)F)C(F)(F)F)CC3)cn1` (single isomer, unassigned) [Example 20, 1,1,1,3,3,3-Hexafluoropropan-2-yl (R or S)-1-((6-(dimethylphosphoryl)pyridin-3-yl)carbamoyl)-6-azaspiro[2.5]octane-6-carboxylate], at MAGL [1], the IC50 stood at 0.029 µM. Also, the “Scaled-up unbound CLint” value in series [2] was 0.85 mL/min/kg.
The matching figures for `CS(=O)(=O)Nc1ccc(NC(=O)C2CC23CCN(C(=O)OC(C(F)(F)F)C(F)(F)F)CC3)cn1` (single isomer, unassigned) [Example 181, 1,1,1,3,3,3-hexafluoropropan-2-yl (R or S)-1-((6-(methylsulfonamido)pyridin-3-yl)carbamoyl)-6-azaspiro[2.5]octane-6-carboxylate]: 0.0305 µM and 1.94 mL/min/kg.
For `O=C(NCC1CCOCC1)[C@H]1CC12CCN(C(=O)OC(C(F)(F)F)C(F)(F)F)CC2` (single isomer, unassigned) [Example 117] the same measures were 0.0047 µM and 20.55 mL/min/kg.
The matching figures for `CC1(NC(=O)C2CC23CCN(C(=O)OC(C(F)(F)F)C(F)(F)F)CC3)CCOCC1` (single isomer, unassigned) [Example 132, 1,1,1,3,3,3-hexafluoropropan-2-yl (R or S)-1-((4-methyltetrahydro-2H-pyran-4-yl)carbamoyl)-6-azaspiro[2.5]octane-6-carboxylate]: 0.027 µM and 44.18 mL/min/kg.
With `O=C(Nc1cncs1)C1CC12CCN(C(=O)OC(C(F)(F)F)C(F)(F)F)CC2` (single isomer, unassigned) [Example 129, 1,1,1,3,3,3-hexafluoropropan-2-yl (R or S)-1-(thiazol-5-ylcarbamoyl)-6-azaspiro[2.5]octane-6-carboxylate], the “Scaled-up unbound CLint” value in series [2] worked out at 53.56 mL/min/kg.
Consider `O=C(Nc1ccncc1)C1CC12CCN(C(=O)OC(C(F)(F)F)C(F)(F)F)CC2` (single isomer, unassigned) [Example 24, 1,1,1,3,3,3-Hexafluoropropan-2-yl (R or S)-1-(pyridin-4-ylcarbamoyl)-6-azaspiro[2.5]octane-6-carboxylate], for which the IC50 at MAGL [1] was 0.0024 µM. Also, the “Scaled-up unbound CLint” value in series [2] is reported as 11.9 mL/min/kg.
The matching figures for `O=C(NCc1ccccc1)[C@H]1CC12CCN(C(=O)OC(C(F)(F)F)C(F)(F)F)CC2` (single isomer, unassigned) [Example 150]: 0.0031 µM and 88.79 mL/min/kg.
For `O=C(OC(C(F)(F)F)C(F)(F)F)N1CCC2(CC1)CC2C(=O)N1CCc2cncnc2C1` (racemic) [Example 187, 1,1,1,3,3,3-hexafluoropropan-2-yl (+)1-(5,6,7,8-tetrahydropyrido[3,4-d]pyrimidine-7-carbonyl)-6-azaspiro[2.5]octane-6-carboxylate], the inhibition at 1 µM on MAGL [1] came to 100%. Moreover, the IC50 came to 0.11 µM on MAGL [1] and 0.143 µM at MAGL [3].
The matching figures for `O=C(OC(C(F)(F)F)C(F)(F)F)N1CCC2(CC1)CC2C(=O)N1CCc2cnc(C(F)(F)F)nc2C1` (single isomer, unassigned) [Example 57, 1,1,1,3,3,3-hexafluoropropan-2-yl (R or S)-1-(2-(trifluoromethyl)-5,6,7,8-tetrahydropyrido[3,4-d]pyrimidine-7-carbonyl)-6-azaspiro[2.5]octane-6-carboxylate]: 100%, 0.0017 µM and 0.00473 µM.
For `O=C(Nc1cccnc1C(F)(F)F)C1CC12CCN(C(=O)OC(C(F)(F)F)C(F)(F)F)CC2` (single isomer, unassigned) [Example 84, 1,1,1,3,3,3-hexafluoropropan-2-yl (R or S)-1-((2-(trifluoromethyl)pyridin-3-yl)carbamoyl)-6-azaspiro[2.5]octane-6-carboxylate] the same measures were 100%, 0.0089 µM and 0.0101 µM.
Turning to `O=C(Nc1ccnc(C(F)(F)F)n1)[C@H]1CC12CCN(C(=O)OC(C(F)(F)F)C(F)(F)F)CC2` (single isomer, unassigned) [Example 17], on MAGL [1], the inhibition at 1 µM turned out to be 100%. In addition, the figures for the IC50 on MAGL [1] and at MAGL [3] were 0.001 µM and 0.00421 µM, respectively.
As for `CN(C(=O)C1CC12CCN(C(=O)OC(C(F)(F)F)C(F)(F)F)CC2)c1cccnc1` (single isomer, unassigned) [Example 42, 1,1,1,3,3,3-hexafluoropropan-2-yl (R or S)-1-(methyl(pyridin-3-yl)carbamoyl)-6-azaspiro[2.5]octane-6-carboxylate], the inhibition at 1 µM at MAGL [1] came to 100%. Further, the IC50 on MAGL [3] amounted to 0.243 µM.
For `O=C(Nc1cccnn1)[C@@H]1CC12CCN(C(=O)OC(C(F)(F)F)C(F)(F)F)CC2` [Example 5, 1,1,1,3,3,3-Hexafluoropropan-2-yl (R)-1-(pyridazin-3-ylcarbamoyl)-6-azaspiro[2.5]octane-6-carboxylate], the inhibition at 1 µM at MAGL [1] worked out at 100%. For the same compound, the IC50 stood at 0.18 µM at MAGL [1] and 0.553 µM at MAGL [3].
The matching figures for `O=C(OC(C(F)(F)F)C(F)(F)F)N1CCC2(CC1)CC2C(=O)N1CCn2c(nnc2C2CC2)C1` (racemic) [Example 185, 1,1,1,3,3,3-hexafluoropropan-2-yl (+)1-(3-cyclopropyl-5,6,7,8-tetrahydro-[1,2,4]triazolo[4,3-a]pyrazine-7-carbonyl)-6-azaspiro[2.5]octane-6-carboxylate]: 90%, 0.4 µM and 0.862 µM.
As for `CN(C(=O)[C@H]1CC12CCN(C(=O)OC(C(F)(F)F)C(F)(F)F)CC2)c1cnccn1` (single isomer, unassigned) [Example 12], the inhibition at 1 µM at MAGL [1] came out at 100%. Moreover, the IC50 at MAGL [3] was determined as 0.102 µM.
Turning to `O=C(Nc1cccnc1)[C@@H]1CC12CCN(C(=O)OC(C(F)(F)F)C(F)(F)F)CC2` (single isomer, unassigned) [Example 3], the inhibition at 1 µM on MAGL [1] turned out to be 100%. Further, the IC50 at MAGL [1] was 0.127 µM; at MAGL [3], 0.435 µM.
